Values quoted from earlier work in patent US8592424B2, “Topical regional neuro-affective therapy” (Afgin Pharma LLC, priority 2008, dated 2013).
Structures can show the parent of a compound that is named as a salt.

What was measured:
[1] = molecular target: dopamine D1 receptor (Homo sapiens, UniProt P21728); details: in vitro tests
[2] = test system: alpha-adrenergic receptors; details: in vitro tests; some alpha-adrenergic receptors
[3] = molecular target: D4 dopamine receptor (Homo sapiens, UniProt P21917); details: in vitro tests
[4] = test system: serotonin receptors; details: in vitro tests
[5] = test system: patients with advanced Parkinson's disease, "off periods"
[6] = test system: patients, some with impotence with erectile dysfunction; details: apomorphine injections, observed and reported
[7] = molecular target: D2 dopamine receptor (Homo sapiens, UniProt P14416); details: in vitro tests
[8] = molecular target: D3 dopamine receptor (Homo sapiens, UniProt P35462); details: in vitro tests
[9] = reported clinical trials, despite using Tigan

Chain of dopamine D1 receptor (P21728 whole entry): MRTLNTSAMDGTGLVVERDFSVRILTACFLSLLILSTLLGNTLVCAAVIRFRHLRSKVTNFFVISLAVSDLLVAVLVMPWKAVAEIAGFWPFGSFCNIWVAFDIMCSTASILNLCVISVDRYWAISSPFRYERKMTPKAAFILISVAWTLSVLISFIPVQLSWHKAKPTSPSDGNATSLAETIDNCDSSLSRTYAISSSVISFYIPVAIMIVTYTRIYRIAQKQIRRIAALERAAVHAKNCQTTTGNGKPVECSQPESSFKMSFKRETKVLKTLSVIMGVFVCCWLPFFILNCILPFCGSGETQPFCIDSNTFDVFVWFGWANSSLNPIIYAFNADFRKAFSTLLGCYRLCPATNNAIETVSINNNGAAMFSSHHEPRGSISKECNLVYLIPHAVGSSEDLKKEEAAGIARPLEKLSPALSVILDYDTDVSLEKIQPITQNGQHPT
Chain of D2 dopamine receptor (P14416 whole entry): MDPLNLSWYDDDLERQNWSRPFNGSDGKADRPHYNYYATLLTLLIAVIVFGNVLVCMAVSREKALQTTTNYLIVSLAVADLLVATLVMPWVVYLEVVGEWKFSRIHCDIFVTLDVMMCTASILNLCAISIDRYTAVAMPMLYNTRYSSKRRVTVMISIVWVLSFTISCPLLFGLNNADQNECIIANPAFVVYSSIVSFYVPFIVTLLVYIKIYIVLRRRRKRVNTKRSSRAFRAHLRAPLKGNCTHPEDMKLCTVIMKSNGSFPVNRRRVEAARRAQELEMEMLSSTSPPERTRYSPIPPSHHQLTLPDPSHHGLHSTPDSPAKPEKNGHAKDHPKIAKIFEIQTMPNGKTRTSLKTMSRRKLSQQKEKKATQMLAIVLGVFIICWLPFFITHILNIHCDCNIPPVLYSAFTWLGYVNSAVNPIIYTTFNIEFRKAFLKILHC
Chain of D3 dopamine receptor (P35462 whole entry): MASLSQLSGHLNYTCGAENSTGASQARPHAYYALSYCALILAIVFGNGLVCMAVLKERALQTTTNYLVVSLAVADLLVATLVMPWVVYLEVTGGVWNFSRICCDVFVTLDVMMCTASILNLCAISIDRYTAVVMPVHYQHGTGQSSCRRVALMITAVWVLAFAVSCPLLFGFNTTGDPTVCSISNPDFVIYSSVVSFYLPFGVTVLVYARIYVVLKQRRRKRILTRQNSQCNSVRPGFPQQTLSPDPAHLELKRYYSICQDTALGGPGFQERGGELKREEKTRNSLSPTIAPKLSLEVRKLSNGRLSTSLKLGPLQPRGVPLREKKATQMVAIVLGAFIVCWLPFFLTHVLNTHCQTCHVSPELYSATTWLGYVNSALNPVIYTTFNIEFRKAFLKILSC
Chain of D4 dopamine receptor (P21917 whole entry): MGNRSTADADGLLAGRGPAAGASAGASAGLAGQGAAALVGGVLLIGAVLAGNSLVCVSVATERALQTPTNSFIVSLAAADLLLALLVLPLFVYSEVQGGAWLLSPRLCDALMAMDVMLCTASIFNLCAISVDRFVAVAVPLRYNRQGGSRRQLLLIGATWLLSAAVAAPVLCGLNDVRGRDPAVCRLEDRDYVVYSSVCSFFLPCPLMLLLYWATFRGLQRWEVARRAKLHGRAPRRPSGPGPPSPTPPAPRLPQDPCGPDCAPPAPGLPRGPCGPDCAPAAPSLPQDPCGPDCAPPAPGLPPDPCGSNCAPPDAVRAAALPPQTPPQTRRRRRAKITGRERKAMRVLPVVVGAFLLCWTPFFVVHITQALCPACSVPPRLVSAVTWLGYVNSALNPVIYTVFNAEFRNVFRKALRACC

Row | SMILES | affinity [1] | affinity [2] | affinity [3] | affinity [4] | other commonly reported adverse events in clinical trials ([5]; oral and injectible forms) | patients experiencing nausea [5, 9] | patients experiencing vomiting [5, 9] | time to take effect ([5]; subcutaneous injection, reported) | solubility in water (at 80 degrees Celsius) | effect on sexual function [6] | affinity [7] | affinity [8] | water solubility
1 | CN1CCc2cccc3c2[C@H]1Cc1ccc(O)c(O)c1-3 [Apomorphine hydrochloride] | low | moderate | high | low | dizziness, yawning, somnolence, rhinorrhea, sweating, flushing, pallor, hallucinations, edema, and chest pain | 31% | 11% | 10 to 15 min | soluble | improvement in sexual function | moderate | moderate | –
2 | c1cnc2cc3c(cc2n1)[C@@H]1CNC[C@H]3C1 [varenicline] | – | – | – | – | – | – | – | – | – | – | – | – | high
